# Experimental data published in patent US5441887A, “Rapid degradation of halogenated hydrocarbons by soluble methane monooxygenase” (Regents of the University of Minnesota, priority 1994, dated 1995).
# Assays:
# [1] = tested on: Methylosinus trichosporium OB3b; assay: No-headspace (single phase) assay of TCE degradation by continuously cultured Mt OB3b; format: cell-based; settings: for Rates: 0% methane, 10 min-15 min; for micromoles TCE removed · hr^-1 · g dry cells^-1: cells cultured with methane 45 ml/min, air 135 ml/min; for Micromoles TCE removed: culture 0.64 g cells/l
# Procedure: Each culture of Mt OB3b was added to 1.8 ml serum bottle prewarmed to 30° C. and sealed with an 11 mm teflon-lined rubber septa. For comparisons requiring similar initial dissolved oxygen levels, anaerobic make-up media (usually 0.6 ml) was added to the bottles first and then the bottles were sealed. Air-saturated 30° C. Higgins media prepared as in Example I was added via gas-tight syringe (1.0 ml), while 1 atm pressure was maintained by allowing air to bleed through a 25 gauge needle. Finally, culture was added (concentrated to give desired density) while remaining headspace-was bled out through the 25 gauge needle. TCE was added with a syringe at the bottom of the sealed bottle, with a syringe at top of the bottle removing equivalent volume of culture. The assay time course was started with TCE (substrate) addition. Incubation was performed at 30° C. with agitation at 200 rpm on a platform shaker.
# Assays were terminated by extraction at desired time points. The liquid-liquid extraction technique used 0.6 ml of pentane containing 1,2-dibromoethane as an internal standard added via gas-tight syringe to inverted assay bottle, while a second syringe with a needle below first needle level collected displaced solution. Partitioning was brought to equilibrium by centrifugation of bottles at 5000 rpm for 10 min. The organic layer was removed by gas-tight syringe and placed in a 1 ml serum bottle for chromatographic analysis. In some cases, dilution of sample or split injection was necessary. Electron-capture detection was preferred. The following gas chromatography operating parameters were used:
# The following Tests 1, 2 and 3 were conducted according to the no-headspaceassay procedure described generally above. […]
# In prewarmed (30° C.) 120 ml serum bottles, 1 ml of Mt OB3b cell suspension grown in a chemostat (A600 =1.460) were mixed with 9 mls of 30° C. Higgins media prepared as in Example I. One bottle was prepared by adding "spent" media from the chemostat (decant media after pelleting cells with centrifugation--10,000 rpm for 10 minutes) rather than fresh Higgins media. The bottles were sealed with 20 mm teflon-lined rubber septa, evacuated and refilled with air (0% methane). One bottle was heat-killed and used as a control.
# 1.76 ml of Mt OB3b cell suspension was added to sealed 1.8 ml serum bottles (25 gauge needle used to equilibrate pressure). 45 μl of 4 mM TCE stock were added to start the assay. Bottles were incubated at 30° C. with agitation on a shaker bath. Bottles were sacrificed at 2.5, 5.0, 10.0, 15.0 and 20.0 mins by displacing 0.6 ml aqueous solution with pentane containing 1 ppm 1,2-dibromoethane as an internal standard. Analysis was performed on a HP 5790A GC using ECD.
# [2] = tested on: Methylosinus trichosporium OB3b; assay: Two-phase headspace assay of TCE degradation by continuously cultured Mt OB3b; format: cell-based
# Procedure: Each culture of Mt OB3b was added in 2 ml quantities to 10 ml serum bottles. Bottles were sealed with 20 mm teflon-lined rubber septa. TCE was added to start the assay. Headspace accounted for 80% of total volume within bottles, but TCE concentration was added based on 2 ml aqueous phase. TCE resided principally in the headspace. All bottles were inverted in order to prevent possible TCE loss by trapping the compound in the headspace between the liquid phase and glass. Samples were incubated inverted at 30° C. with agitation (200 rpm on a platform shaker).
# Headspace incubations were analyzed by direct injection of headspace into a gas chromatograph. This method may be performed without sacrificing a sample. It is important to prepare sound calibration curves for quantitation. The best method for external standardization is to prepare samples as if running an assay and heat-killing at 80° C. for 10 mins prior to TCE addition. Samples were incubated for 30 mins under test conditions to allow adequate time for TCE to partition among the numerous phases (air, water, cell material, and the like). Headspace samples were injected into a gas chromatograph using either FID or ECD. Numerous TCE concentrations were used to obtain a sound standardization curve.
# Headspace assays of TCE degradation were conducted by adding bacterial cells from the continuous culture described in Example II or cells diluted with spent Higgins medium (2 mls) into assay vials (10 ml vials).
# Rates were calculated from peak heights of recorder tracings from a gas chromatograph equipped with an electron capture detector.
# [3] = target: T1, soluble methane monooxygenase (reductase, component B, hydroxylase) (Methylosinus trichosporium, UniProt P27353); assay: Degradation of 14C-TCE by purified methane monooxygenase components with NADH, HPLC analysis; format: biochemical, Methylosinus trichosporium OB3b
# T1 construct: The cells were disintegrated by sonication; made in house; host or cells: native protein purified from cell paste of the methane-oxidizing bacterium (no recombinant host given)
# T1 sequence (P27353 1-526): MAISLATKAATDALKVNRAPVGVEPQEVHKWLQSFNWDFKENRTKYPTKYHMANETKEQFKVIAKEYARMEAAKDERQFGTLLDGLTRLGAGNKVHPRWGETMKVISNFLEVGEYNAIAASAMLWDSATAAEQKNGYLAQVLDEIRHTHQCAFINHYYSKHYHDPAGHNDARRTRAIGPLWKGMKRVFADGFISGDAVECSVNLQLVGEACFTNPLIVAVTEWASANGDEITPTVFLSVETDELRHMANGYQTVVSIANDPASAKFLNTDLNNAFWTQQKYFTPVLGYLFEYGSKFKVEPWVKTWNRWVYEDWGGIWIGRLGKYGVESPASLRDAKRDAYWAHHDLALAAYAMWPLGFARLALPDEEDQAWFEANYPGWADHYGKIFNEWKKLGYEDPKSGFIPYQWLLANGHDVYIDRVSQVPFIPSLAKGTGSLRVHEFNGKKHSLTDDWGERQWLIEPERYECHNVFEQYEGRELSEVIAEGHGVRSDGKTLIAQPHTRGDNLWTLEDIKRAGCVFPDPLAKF
# T1 sequence (P27354 1-394 partner): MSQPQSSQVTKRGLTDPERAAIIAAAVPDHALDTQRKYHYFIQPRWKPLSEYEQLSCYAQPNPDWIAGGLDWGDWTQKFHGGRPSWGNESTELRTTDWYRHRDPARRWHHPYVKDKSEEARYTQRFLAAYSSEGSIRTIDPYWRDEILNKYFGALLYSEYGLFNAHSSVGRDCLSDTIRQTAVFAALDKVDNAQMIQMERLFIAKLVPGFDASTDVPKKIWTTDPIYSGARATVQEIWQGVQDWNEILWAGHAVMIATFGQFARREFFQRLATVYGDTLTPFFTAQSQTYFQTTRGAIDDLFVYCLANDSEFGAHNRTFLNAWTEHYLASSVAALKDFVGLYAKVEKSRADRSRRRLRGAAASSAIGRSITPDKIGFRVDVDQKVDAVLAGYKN
# T1 sequence (P27355 1-169 partner): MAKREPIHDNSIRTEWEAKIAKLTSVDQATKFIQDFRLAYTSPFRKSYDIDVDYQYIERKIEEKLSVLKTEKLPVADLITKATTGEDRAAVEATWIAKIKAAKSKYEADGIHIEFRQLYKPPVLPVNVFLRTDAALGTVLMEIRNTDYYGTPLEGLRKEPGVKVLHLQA
# Procedure: The three components of methane monooxygenase, reductase, component B, and hydroxylase, were purified by the method of Fox and Lipscomb, supra, the disclosure of which is hereby incorporated by reference. All purification procedures were performed at 4° C. The cell paste (100 g) was suspended in 200 ml of 25 mM MOPS, pH 7.0, containing 200 μ M Fe(NH4 )2 (SO4)2.6H2 O and 2 mM cysteine (Buffer A). The cells were disintegrated by sonication. The sonicated suspension was centrifuged at 48000×g for 60 min. The supernatant was decanted, diluted with an additional 100 ml of buffer A, and adjusted to pH 7.0. The cell free extract was immediately loaded onto a fast flow DEAE Sepharose CL-6B column (40 mm×250 mm) equilibrated with buffer A. The column was then washed with 600 ml of buffer A. All MMO components were completely adsorbed. The MMO components were eluted with a 2000 ml gradient of 0.0 to 0.40M NaCl in buffer A. The hydroxylase eluted at 0.075M NaCl. The two additional fractions required for reconstituted hydroxylase activity, component B and the reductase, eluted at 0.18M NaCl and 0.27M NaCl, respectively.
# 105 nmol of uniformly labelled ^14 C-TCE was added to each vial by injection through the rubber septum above the reaction mixture until a final TCE concentration of 70 μM was reached. The reaction was allowed to proceed for 2 min at 25° C. and then quenched by the addition of sulfuric acid (Sigma Chemical Company, St. Louis, Miss.) at pH 2.0.
# Following centrifugation to remove precipitated protein, the reaction mixtures were analyzed by high pressure liquid chromatography (HPLC).
# [4] = tested on: Mt OB3b; assay: TCE oxidation by Mt OB3b grown by conventional methods (shake flask); format: cell-based, Methylosinus trichosporium OB3b; settings: initial TCE concentrations of one ppm or higher
# [5] = tested on: methane-oxidizing bacteria; settings: soil exposed to 0.6% natural gas in air for 3 weeks, TCE average 150 μg/l in influent; cited from earlier work
# [6] = tested on: methane-utilizing mixed culture; settings: Fogel et al.; cited from earlier work
# [7] = tested on: methanotrophic bacteria; settings: optimal conditions, prior reports; cited from earlier work
# [8] = tested on: Methylococcus capsulatus Bath; settings: aerobe Methylococcus capsulatus Bath; cited from earlier work
compound,measurement,setting,value
"ClC=C(Cl)Cl [TCE, 1,1,2-trichloroethene]",Rate of TCE-utilization (no headspace assay),"[1]; Test 1, culture turbidity A600 1.310",336 μmoles·hr^-1·g cells^-1
same,Rate of TCE-utilization (no headspace assay),"[1]; Test 2, culture turbidity A600 1.410",1070 μmoles·hr^-1·g cells^-1
same,Rate of TCE-utilization (no headspace assay),"[1]; Test 3, culture turbidity A600 1.460",2400 μmoles·hr^-1·g cells^-1
same,Rate when most rapid oxidation of TCE occurred,"[1]; Test 3, times of most rapid oxidation",approximately 3500 μmoles/h^-1.g cells^-1
same,Rates,"[1]; Test 3 Run 2, 1/10 dilution in Higgins media",3200 μmoles·h^-1·g cells^-1
same,Rates,"[1]; Test 3 Run 3, 1/10 dilution in spent Higgins media from chemostat",3960 μmoles·h^-1·g cells^-1
same,micromoles TCE removed · hr^-1 · g dry cells^-1,[1]; concentration of TCE 10 μM,829 micromoles TCE removed·hr^-1·g
same,micromoles TCE removed · hr^-1 · g dry cells^-1,[1]; concentration of TCE 25 μM,1104 micromoles TCE removed·hr^-1·g
same,micromoles TCE removed · hr^-1 · g dry cells^-1,[1]; concentration of TCE 50 μM,1194 micromoles TCE removed·hr^-1·g
same,Micromoles TCE removed,"[1]; concentration of TCE 40 μm, 5-10 min.",2.96 µmol/min
same,Micromoles TCE removed,"[1]; concentration of TCE 80 μm, 5-10 min.",5.69 µmol/min
same,Micromoles TCE removed,"[1]; concentration of TCE 80 μm, 10-15 min.",3.03 µmol/min
same,Micromoles TCE removed,"[1]; concentration of TCE 320 μm, 5-10 min.",15.54 µmol/min
same,Micromoles TCE removed,"[1]; concentration of TCE 320 μm, 10-15 min.",10.2 µmol/min
same,Micromoles TCE removed,"[1]; concentration of TCE 640 μm, 10-25 min.",10.48 µmol/min
same,Km,"[1]; concluded from Table VIII and other experiments, read-out: Ks for TCE oxidation",~5 µM
same,Rate of TCE oxidation,"[1]; methane added 5% saturation, cell density approx. 0.16 g/l, nominal initial TCE 80 μM",3350 μmoles·hr^-1·g cells^-1
same,Rate of TCE oxidation,"[1]; methane added 10% saturation, cell density approx. 0.16 g/l, nominal initial TCE 80 μM",3000 μmoles·hr^-1·g cells^-1
same,Rate of TCE oxidation,"[1]; methane added 20% saturation, cell density approx. 0.16 g/l, nominal initial TCE 80 μM",875 μmoles·hr^-1·g cells^-1
same,Rate of TCE oxidation,"[1]; methane added 50% saturation, cell density approx. 0.16 g/l, nominal initial TCE 80 μM",110 μmoles·hr^-1·g cells^-1
same,Rate of TCE oxidation,"[1]; methane added: none, cell density approx. 0.16 g/l, nominal initial TCE 80 μM",660 μmoles·hr^-1·g cells^-1
same,Rate of TCE oxidation,"[1]; some cell batches, without any methane present",approximately 4000 micro-moles.hr^-1.g cells^-1
same,Rate at which cells are believed able to oxidize TCE,"[1]; under optimal conditions, belief, extrapolated","10,000 μmoles.h^-1.g cells^-1"
same,"Rate, micromoles TCE oxidized · g cells^-1 · hr^-1","[2]; cell density .070 g·l^-1, initial TCE 22 micromolar",808 micromoles TCE oxidized·g cell
same,"Rate, micromoles TCE oxidized · g cells^-1 · hr^-1","[2]; cell density .173 g·l^-1, initial TCE 23 micromolar",461 micromoles TCE oxidized·g cell
same,"Rate, micromoles TCE oxidized · g cells^-1 · hr^-1","[2]; cell density .347 g·l^-1, initial TCE 22 micromolar",465 micromoles TCE oxidized·g cell
same,"Rate, micromoles TCE oxidized · g cells^-1 · hr^-1","[2]; cell density .521 g·l^-1, initial TCE 22 micromolar",308 micromoles TCE oxidized·g cell
same,"Rate, micromoles TCE oxidized · g cells^-1 · hr^-1","[2]; cell density .695 g·l^-1, initial TCE 22 micromolar",281 micromoles TCE oxidized·g cell
same,Rate of TCE degradation,"[2]; low cell densities, initial TCE 80 μM, culture cell mass 0.825 g/l (FIG. 1)",1200 micromoles TCE removed.hr^-1.g cells^-1
same,Products of TCE oxidation,"[3]; 70 μM 14C-TCE, 2 min at 25° C., HPLC","formic acid, glyoxylic acid, dichloroacetic acid, and chloral"
same,TCE converted to HPLC-detectable products,"[3]; 70 μM 14C-TCE, 2 min at 25° C., reductase 110 μg, component B 13 μg, hydroxylase 250 μg, NADH 0.1 mM",53%
same,Products of TCE oxidation in control incubations,[3]; each one of the methane monooxygenase components or NADH omitted,no products of TCE oxidation were detectable
same,Removal at which oxidation of TCE ceased,[4],about 50%
same,Applied TCE passing through the soil,[5],less than 5%
same,Rate of TCE degradation,[6],approximately 2.5 μmoles per hour per gram of cells
same,Rates of TCE degradation reported,[7],exceed 100 μmoles per hour per gram of cells
ClC(Cl)Cl [chloroform],Oxidation rate,[8],35 nano-moles per gram of cells per minute
